Source: ChEMBL document CHEMBL3272227, “Conformationally restricted analogs of histamine H1 receptor antagonists: trans and cis-1-benzyl-3-dimethylamino-6-phenylpiperidine” (J Med Chem, 1976)
The source made the active and inactive calls. The calls are words filed in the database; no cut-off is given here.

What was measured:
[1] = target: Histamine H1 receptor (Cavia porcellus) (UniProt P31389); test: Antagonist activity at histamine H1 receptor in guinea pig ileum assessed as inhibition of histamine-induced contraction at 0.1 uM treated for 15 mins prior to histamine challenge; format: tissue-based
Sequence of Histamine H1 receptor (Cavia porcellus) (P31389 whole entry): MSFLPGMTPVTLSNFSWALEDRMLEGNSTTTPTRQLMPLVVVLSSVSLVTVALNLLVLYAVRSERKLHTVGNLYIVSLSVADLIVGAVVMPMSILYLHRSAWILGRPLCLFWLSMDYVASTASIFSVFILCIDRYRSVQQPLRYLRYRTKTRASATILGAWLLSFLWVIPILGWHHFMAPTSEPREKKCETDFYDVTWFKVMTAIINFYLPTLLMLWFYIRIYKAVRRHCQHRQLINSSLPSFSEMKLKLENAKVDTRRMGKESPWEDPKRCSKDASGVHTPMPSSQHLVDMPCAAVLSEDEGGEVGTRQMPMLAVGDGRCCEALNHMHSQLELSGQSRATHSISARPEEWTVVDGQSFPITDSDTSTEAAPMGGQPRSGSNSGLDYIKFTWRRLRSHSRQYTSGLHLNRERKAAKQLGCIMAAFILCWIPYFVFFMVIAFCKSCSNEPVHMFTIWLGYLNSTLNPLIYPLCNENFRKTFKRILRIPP

Ileum [2] = test: Inhibition of acetylcholine-induced contraction in guinea pig ileum at 0.1 uM treated for 15 mins prior to acetylcholine challenge; format: functional, tissue-based; conditions: Cavia porcellus
[3] = target: Histamine H1 receptor (Cavia porcellus) (UniProt P31389); test: Antagonist activity at histamine H1 receptor in guinea pig ileum assessed as inhibition of histamine-induced contraction treated for 15 mins prior to histamine challenge; format: tissue-based
Ileum [4] = test: Inhibition of acetylcholine-induced contraction in guinea pig ileum treated for 15 mins prior to acetylcholine challenge; format: functional; conditions: Cavia porcellus, read-out: ED50 (the source's name)
Ileum [5] = test: Inhibition of barium chloride-induced contraction in guinea pig ileum at 5 uM; format: functional; conditions: Cavia porcellus
[6] = target: Histamine N-methyltransferase (Cavia porcellus, UniProt Q9EST2); test: Inhibition of histamine N-methyltransferase in guinea pig brain using S-adenosyl-L-methionine-14C as substrate by scintillation spectrophotometer
Sequence of Histamine N-methyltransferase (Q9EST2 whole entry): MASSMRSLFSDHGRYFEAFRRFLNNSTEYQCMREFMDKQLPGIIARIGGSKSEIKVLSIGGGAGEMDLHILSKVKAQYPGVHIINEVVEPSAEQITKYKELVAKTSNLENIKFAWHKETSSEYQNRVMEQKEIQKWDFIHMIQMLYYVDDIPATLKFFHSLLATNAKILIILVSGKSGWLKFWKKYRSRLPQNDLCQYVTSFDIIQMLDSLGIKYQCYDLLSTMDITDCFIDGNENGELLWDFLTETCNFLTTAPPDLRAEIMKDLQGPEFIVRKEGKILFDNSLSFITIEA

Ileum [7] = test: Inhibition of barium chloride-induced contraction in guinea pig ileum at 2 uM; format: functional; conditions: Cavia porcellus
[8] = target: Histamine H1 receptor (Cavia porcellus) (UniProt P31389); test: Antagonist activity at histamine H1 receptor in guinea pig ileum assessed as inhibition of histamine-induced contraction at 50 nM treated for 15 mins prior to histamine challenge; format: tissue-based
[9] = target: Histamine H1 receptor (Cavia porcellus) (UniProt P31389); test: Antagonist activity at histamine H1 receptor in guinea pig ileum assessed as inhibition of histamine-induced contraction at 10 nM treated for 15 mins prior to histamine challenge; format: tissue-based

Compound | ED50 [3] | EC50 (Ileum [4]) | Ki [6] | further results
CN(C)CCN(Cc1ccccc1)c1ccccn1 |  |  |  | inhibition [1]: 66%; inhibition (Ileum [2]): inactive
CN(C)[C@H]1CC[C@H](c2ccccc2)N(Cc2ccccc2)C1 (relative stereo) | 6.72 µM | 2.9 µM | 247 µM | inhibition at 5 µM (Ileum [5]): 39%
CN(C)[C@@H]1CC[C@H](c2ccccc2)N(Cc2ccccc2)C1 (relative stereo) | 1.83 µM | 1.45 µM | 31.6 µM | inhibition at 2 µM (Ileum [7]): 50%
CN(C)[C@@H]1C[C@H](c2ccccc2)N(c2ccccc2)C1 (relative stereo) |  |  |  | inhibition [8]: 45%
CN(C)[C@H]1C[C@H](c2ccccc2)N(c2ccccc2)C1 (relative stereo) |  |  |  | inhibition [9]: 85%
